In patent US20050209157A1, “Short bioactive peptides and methods for their use” (priority 2001, published 2005):
Converted amounts (≈) assume the structure as drawn. Where two headings read alike, the source gives them in different places. No end group written: not given here.

How the values were obtained:
[1] = tested on: human red blood cells (RBC); test: in vitro; assay type: cell-based; details: hemolytic assay, concentration at 50% hemolysis, 1 hour at 37° C.
in vitro [2] = details: human, WI38 normal lung fibroblast cells
HeLaS3 = test: Anti-cancer assay, MTT, LD50; assay type: cell-based; details: 24 hours with peptide, cervical carcinoma
Source text: (§1) Numbers are LD50 values (μg/mL).

H1299 = test: Anti-cancer assay, MTT, LD50; assay type: cell-based; details: 24 hours with peptide, lung large cell carcinoma
Source text: as §1

PC3 = test: Anti-cancer assay, MTT, LD50; assay type: cell-based; details: 24 hours with peptide, prostate adenocarcinoma
Source text: as §1

BMKC = test: Anti-cancer assay, MTT, LD50; assay type: cell-based; details: BMKC cloned melanoma line, 24 hours with peptide
Source text: as §1

SW480 = test: Anti-cancer assay, MTT, LD50; assay type: cell-based; details: SW480 colon adenocarcinoma line, 24 hours with peptide
Source text: as §1

MCF7 = test: Anti-cancer assay, MTT, LD50; assay type: cell-based; details: MCF7 breast adenocarcinoma line, MTT, 24 hours with peptide
Source text: as §1

WI38 = details: for LD50 WI38: WI38 normal lung fibroblast line
[3] = tested on: Pseudomonas aeruginosa ATCC 9027; test: Antimicrobial assay I, MIC by OD measurement; assay type: cell-based; details: for paerug9027 (MIC): 37° C. for 24 hours, absorbance 620 nm
Source text: (§2) The data for the following antimicrobial assay of the peptides have been obtained by making OD measurements in in vitro cell culture experiments with and without added peptide. The protocol used is as follows.
(§3) Cell lines included Staphylococcus aureus ATCC 6538 or 25923, Pseudomonas aeruginosa ATCC 9027 or 27853. Medium used were Antibiotic Medium 3 (Difco), Antibiotic Medium 2 (Difco), and 0.85% saline. Controls used were physiological saline, and gentamycin at 50, 25, 10, 5, 1, and 0.1 ppm.
(§4) Absorbance was read at 620 nm after shaking to resuspend cells.
(§5) Staph6538 is Staphylococcus aureus ATCC accession number 6538; paerug9027 is Pseudomonas aeruginosa ATCC accession number 9027, yeast is Saccharomyces cerevisiae.

[4] = tested on: Staphylococcus aureus ATCC 6538; test: Antimicrobial assay I, MIC by OD measurement; assay type: cell-based; details: 37° C. for 24 hours, absorbance 620 nm
Source text: as §2, §3, §4, §5

[5] = tested on: yeast (Saccharomyces cerevisiae); test: Antimicrobial assay I, yeast assay in RPMI 1640; assay type: cell-based; details: RPMI 1640 media
Protocol: as §2, §4
The yeast assay was performed in RPMI 1640 media (pH 7.0 at 25° C.).
as §5

[6] = tested on: Candida albicans ATCC 10231; test: Antimicrobial assay I, modified protocol (tryptic soy broth), MFC; details: minimum fungicidal concentration, Table 4
in vitro [7] = assay type: cell-based, human; details: human, human red blood cells
[8] = tested on: Escherichia coli ATCC 25922; test: Antimicrobial assay I, modified protocol (tryptic soy broth), MBC; details: minimum bactericidal concentration, Table 4
[9] = tested on: Stapholococcus aureus ATCC 25923; test: as above; details: minimum bactericidal concentration, Table 4
[10] = tested on: Pseudomonas aeruginosa ATCC 27853; test: as above; details: minimum bactericidal concentration, Table 4
[11] = tested on: human leukocyte (WBC) cells; test: Stimulation and proliferation of leukocytes, Alamar Blue; assay type: cell-based; details: compared to untreated positive control cells; Alamar Blue
Protocol: In vitro viability of human leukocyte cells in the presence of different peptides at different concentrations was determined by an Alamar Blue protocol. Alamar Blue (Promega, Madison, Wis.) is an indicator dye, formulated to measure quantitatively the proliferation and cytotoxicity of the cells. The dye consists of an oxidation-reduction (redox) indicator that yields a calorimetric change and a fluorescent signal in response to cellular metabolic activity.
Assay protocol: Blood from a human was drawn and centrifuged at 1500 rpm for 15 minutes at room temperature. The buffy coat cells at the plasma-red blood cell interface were aspirated. Buffy coat cells (mainly lymphocyte cells) were then transferred into 15 ml centrifuge tubes containing 5 ml of RPMI-1640 medium+10% Fetal Bovine Serum (Gibco, Grand Island, N.Y.). Additional medium was added to the tubes to bring the volume up to 10 ml. The buffy coat suspension was then carefully layered on 5 ml of Histopaque (Sigma Chemical Co., St. Louis, Mo.) and centrifuged at 1500 rpm for 30 minutes at room temperature. The interface which is mostly PBMCs (peripheral mononuclear cells) was aspirated and transferred to a 15 ml conical centrifuge tube and, resuspended in 2 ml cold RPMI-1640 and brought up to 15 ml with cold RPMI-1640 medium. Cells were centrifuged at 1500 rpm for 10 minutes. The supernatant was then aspirated and discarded. The cell pellet was re-suspended in 1 ml of cold RPMI 1640 and brought up to 15 ml with RPMI medium. This step was repeated twice, except that in the last step, the cells were resuspended with 1 ml of cold RPMI-1640 medium and cell counts were performed with a hemocytometer according to the Sigma cell culture catalogue.
Pokewood mitogen was used as a control along with positive and negative controls. Negative control cells were killed with 70% methanol. Positive (+) control cells were incubated in RPMI medium (untreated). […] of AlamarBlue was added to the cells, and readings were taken after 24 hours, 48 hours, 72 hours, and 96 hours using a fluorimeter (excitation 544/transmission 590 nm).
Calculations were performed using the following formula. The peptide treated sample and positive control were adjusted for negative control. [formula]
Using the protocol described immediately above, about 100-150 peptides were screened for their stimulatory and/or inhibitory actions upon the growth of human leukocyte (“WBC”) cells as compared to the growth of untreated positive control cells.
The Alamar Blue stain used in the protocol permeates both cell and nuclear membranes, and is metabolized in the mitochondria to cause the change in color. The resulting fluorometric response is therefore a result of total mitochondrial activity caused by cell stimulation and/or mitosis (cell proliferation).

S. typhimurium 14028S = assay type: cell-based, Salmonella typhimurium; details: mean of three; 16 to 20 hours at 35° C.; in µg/mL
P. aeruginosa H374 = assay type: cell-based, Pseudomonas aeruginosa; details: mean of three; 16 to 20 hours at 35° C.
E. coli UB1005 = assay type: cell-based, Escherichia coli; details: mean of three; 16 to 20 hours at 35° C.; in µg/mL
[12] = LD50 WI38, WI38 normal lung fibroblast line, MTT, 24 hours with peptide
[13] = MTT, 24 hours with peptide, normal fibroblast line
[14] = pH 7, Table 26, valine substitution, read-out: Hemolysis RBC LD50
[15] = WI-38 LD50, Table 26, valine substitution
[16] = pH 7, hemolytic assay, concentration at 50% hemolysis, 1 hour at 37° C., read-out: LD50

| Compound | LD50 [1] | HeLaS3 LD50 (HeLaS3) | H1299 LD50 (H1299) | PC3 LD50 (PC3) | LD50 BMKC (BMKC) | LD50 SW480 (SW480) | LD50 MCF7 (MCF7) | WI38 LD50 (WI38; [13]) | other results |
| --- | --- | --- | --- | --- | --- | --- | --- | --- | --- |
| FAKLLAKLAKKAA-NH2 [P93] | > (> indicates greater than 1000) | > (> indicates greater than 1000) | 320 µg/mL | 690 µg/mL | – | – | – | – | CC50 at 24 h (in vitro [2]; WI38 LD50, MTT, 24 hours with peptide, normal fibroblast line): 530 µg/mL |
| KKVVFKVKFK-NH2 [P302, reference compound] | > (> indicates greater than 1000) | > (> indicates greater than 1000) | 720 µg/mL | > (> indicates greater than 1000) | 700 µg/mL | > (> indicates greater than 1000) | 340 µg/mL | 800 µg/mL | CC50 at 24 h (in vitro [2]; [12]): 800 µg/mL |
| FALALKALKKA-NH2 [P176] | > (> indicates greater than 1000) | – | – | – | – | – | – | – | paerug9027 (MIC) [3]: > (> indicates greater than 200 μg/mL); staph6538 (MIC) [4]: > (> indicates greater than 200 μg/mL); yeast (MIC or MFC) [5]: > (> indicates greater than 200 μg/mL) |
| KFKKLAKKF-NH2 [P174] | > (> indicates greater than 1000) | > (> indicates greater than 1000) | > (> indicates greater than 1000) | > (> indicates greater than 1000) | > (> indicates greater than 1000) | > (> indicates greater than 1000) | > (> indicates greater than 1000) | > (> indicates greater than 1000) | LD50 WI38 (WI38; MTT, 24 hours with peptide): > (> indicates greater than 1000) |
| MPKWKVFKKIEKVGRNIRNGIVKAGPAIAVLGEAKALG-OH [P5, reference compound] | > (> indicates greater than 1000) | – | – | – | – | – | – | – | paerug9027 (MIC) [3]: 50 µg/mL; staph6538 (MIC) [4]: 100 µg/mL; yeast (MIC or MFC) [5]: > (> indicates greater than 200 μg/mL) |
| KFKKLAKKW-NH2 [P175] | > (> indicates greater than 1000) | 510 µg/mL | > (> indicates greater than 1000) | > (> indicates greater than 1000) | > (> indicates greater than 1000) | 70 µg/mL | > (> indicates greater than 1000) | > (> indicates greater than 1000) | LD50 WI38 (WI38; MTT, 24 hours with peptide): > (> indicates greater than 1000) |
| CC(C)C[C@H](NC(=O)[C@H](C)NC(=O)[C@H](CC(C)C)NC(=O)[C@H](CCCCN)NC(=O)[C@H](C)NC(=O)[C@H](CC(C)C)NC(=O)[C@H](CCCCN)NC(=O)[C@H](CCCCN)NC(=O)[C@H](C)NC(=O)[C@H](CC(C)C)NC(=O)[C@H](CCCCN)NC(=O)[C@H](C)NC(=O)[C@H](CC(C)C)NC(=O)[C@H](CCCCN)NC(=O)[C@H](CCCCN)NC(=O)[C@H](C)NC(=O)[C@@H](N)Cc1ccccc1)C(N)=O [compound 35] | – | – | – | – | – | – | – | – | P. aerug (MIC) [3]: 200 µg/mL; MFC Candida A.10231 [6]: >40 µg/mL; HC50 at 1 h (in vitro [7]; [14]): 150 µg/mL; HC50 at 1 h (in vitro [7]; pH 7, Table 27, read-out: Hemolysis (LD50)): 100 µg/mL; CC50 at 24 h (in vitro [2]; [15]): 25 µg/mL (≈ 13.5 µM); MBC E. coli A.25922 [8]: 8 µg/mL (≈ 4.31 µM); WI38 LD50 (WI38; Table 27): 25 µg/mL; MBC S. aur A.25923 [9]: 10 µg/mL (≈ 5.39 µM); MBC P. aerug A.27853 [10]: 8 µg/mL (≈ 4.31 µM) |
| FKLAFKLAKKAFL-NH2 [P122] | > (> indicates greater than 1000) | 780 µg/mL | 830 µg/mL | 800 µg/mL | 700 µg/mL | 570 µg/mL | 360 µg/mL | 720 µg/mL | CC50 at 24 h (in vitro [2]; [12]): 720 µg/mL |
| YAKLLAKLAKKAL-NH2 [P155, YAKLLAKLAKKAL-NH2] | > (> indicates greater than 1000) | > (> indicates greater than 1000) | > (> indicates greater than 1000) | – | > (> indicates greater than 1000) | > (> indicates greater than 1000) | > (> indicates greater than 1000) | > (> indicates greater than 1000) | paerug9027 (MIC) [3]: > (> indicates greater than 200 μg/mL); staph6538 (MIC) [4]: > (> indicates greater than 200 μg/mL); yeast (MIC or MFC) [5]: > (> indicates greater than 200 μg/mL); LD50 WI38 (WI38; MTT, 24 hours with peptide): > (> indicates greater than 1000) |
| VALALKALKKLAKKLKKLAKKAL-NH2 [P509] | – | – | – | – | – | – | – | – | HC50 at 1 h (in vitro [7]; [16]): 40 µg/mL; stimulatory and/or inhibitory action on growth of human leukocyte (WBC) cells [11]: stimulatory (and/or proliferative) at all concentrations through 500 μg/ml |
| FAKKLAKKLKKLAKLALAL-OH [P29] | – | – | – | – | 300 µg/mL | 210 µg/mL | 140 µg/mL | – | S. typhimurium 14028S MIC (S. typhimurium 14028S): 8; P. aeruginosa H374 MIC (P. aeruginosa H374): 16 µg/mL; HC50 at 1 h (in vitro [7]; [16]): 250 µg/mL; CC50 at 24 h (in vitro [2]; [12]): 520 µg/mL; E. coli UB1005 MIC (E. coli UB1005): 8 |
| FALALKALKKLAKKLKKLAKKAL-NH2 [compound 25] | – | – | – | – | – | – | – | – | MFC Candida A.10231 [6]: >50 µg/mL; HC50 at 1 h (in vitro [7]; [14]): 16 µg/mL; CC50 at 24 h (in vitro [2]; [15]): 24 µg/mL; MBC E. coli A.25922 [8]: 40 µg/mL; MBC S. aur A.25923 [9]: 40 µg/mL; MBC P. aerug A.27853 [10]: 30 µg/mL |
| KLAKKLAKLAKLAKAL-OH [P160, reference compound] | > (> indicates greater than 1000) | 550 µg/mL | 470 µg/mL | 450 µg/mL | 220 µg/mL | 370 µg/mL | 320 µg/mL | 700 µg/mL | CC50 at 24 h (in vitro [2]; [12]): 700 µg/mL |
| FAKKLAKKLKKLAKKLAK-OH [Shiva 10(1-18_AC] | > (> indicates greater than 1000) | – | – | – | – | – | – | – | – |
